Reference: PubChem BioAssay AID624043 (The Scripps Research Institute Molecular Screening Center, 2012)
Active and inactive are the calls of the source.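 The calls were made as follows: active = compounds whose EC50, the dose giving half of full IDE activation, is 100 µM or lower; inactive = EC50 above 100 µM or not measured.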

Target: Insulin-degrading enzyme (Homo sapiens) (UniProt P14735)
Experiment: activators of wild-type recombinant IDE, late-stage follow-up, counter-screen for IDE activator project, biochemical, fluorescence polarization, run by assay provider (AID 624043)
Details: FAbetaB cleavage

Chain of Insulin-degrading enzyme (Homo sapiens) (P14735 whole entry, looked up): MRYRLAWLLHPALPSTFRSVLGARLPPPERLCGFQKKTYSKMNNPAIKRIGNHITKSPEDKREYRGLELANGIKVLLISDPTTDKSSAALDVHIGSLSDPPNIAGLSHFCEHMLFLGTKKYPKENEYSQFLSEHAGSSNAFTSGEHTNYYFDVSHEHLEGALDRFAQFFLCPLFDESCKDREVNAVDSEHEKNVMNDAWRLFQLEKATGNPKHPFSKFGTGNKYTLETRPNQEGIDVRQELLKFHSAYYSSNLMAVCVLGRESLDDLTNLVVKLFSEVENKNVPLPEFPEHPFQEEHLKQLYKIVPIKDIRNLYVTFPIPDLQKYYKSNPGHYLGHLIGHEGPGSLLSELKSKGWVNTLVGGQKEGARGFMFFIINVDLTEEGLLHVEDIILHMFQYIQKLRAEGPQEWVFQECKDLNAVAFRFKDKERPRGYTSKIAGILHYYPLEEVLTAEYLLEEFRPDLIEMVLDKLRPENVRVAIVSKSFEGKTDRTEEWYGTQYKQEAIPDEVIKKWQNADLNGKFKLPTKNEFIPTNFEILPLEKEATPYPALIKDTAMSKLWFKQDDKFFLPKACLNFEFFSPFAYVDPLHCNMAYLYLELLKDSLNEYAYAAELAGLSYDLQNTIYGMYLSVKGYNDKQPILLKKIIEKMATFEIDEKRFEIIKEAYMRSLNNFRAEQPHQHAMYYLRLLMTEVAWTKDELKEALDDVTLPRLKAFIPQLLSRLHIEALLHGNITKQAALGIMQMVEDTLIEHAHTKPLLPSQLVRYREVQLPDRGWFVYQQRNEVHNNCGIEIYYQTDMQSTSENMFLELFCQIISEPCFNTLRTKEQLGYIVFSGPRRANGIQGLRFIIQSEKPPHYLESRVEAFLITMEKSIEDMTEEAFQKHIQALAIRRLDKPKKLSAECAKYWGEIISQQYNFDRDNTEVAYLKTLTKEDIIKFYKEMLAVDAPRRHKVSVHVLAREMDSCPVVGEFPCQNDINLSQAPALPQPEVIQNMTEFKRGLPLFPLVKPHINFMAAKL

EC50 | SMILES
> 15 µM (inactive) | CC(C)CCn1nnnc1C(C(C)C)N1CCN(c2ccccc2)CC1 (stereo not drawn)
> 15 µM (inactive) | CC(C)CCn1nnnc1CN1CCN(c2ccccc2F)CC1
> 15 µM (inactive) | CCC(c1nnnn1CCC(C)C)N1CCN(c2ccccc2)CC1 (stereo not drawn)
